{
  "source": "patent US12402624B2",
  "about": "“Polymorphs of mesotrione metal chelate and preparation process” (priority 2017, dated 2025)",
  "test": "Particle size distribution (D50, D90) of the polymorph",
  "format": "physicochemical",
  "conditions": "for Particle size D(0.9): D90; for Particle size D(0.5): median diameter D50",
  "key": {"[1]": {"conditions": "listed as Mesotrione copper chelate form I-a"}, "[2]": {"conditions": "listed as Mesotrione copper chelate form I-b"}, "[3]": {"conditions": "listed as Mesotrione copper chelate form II-a"}, "[4]": {"conditions": "listed as Mesotrione copper chelate form II-b"}},
  "data": [
    {"substance": "mesotrione copper chelate [Mesotrione copper chelate form I]", "values": [
      {"measurement": "Particle size D(0.9)", "setting": "[1]", "result": 13.02, "unit": "μm"},
      {"measurement": "Particle size D(0.9)", "setting": "[2]", "result": 13.22, "unit": "μm"},
      {"measurement": "Particle size D(0.5)", "setting": "[1]", "result": 7.94, "unit": "μm"},
      {"measurement": "Particle size D(0.5)", "setting": "[2]", "result": 7.62, "unit": "μm"}
    ]},
    {"substance": "mesotrione copper chelate [Mesotrione copper chelate form II]", "values": [
      {"measurement": "Particle size D(0.9)", "setting": "[3]", "result": 34.08, "unit": "μm"},
      {"measurement": "Particle size D(0.9)", "setting": "[4]", "result": 27.33, "unit": "μm"},
      {"measurement": "Particle size D(0.5)", "setting": "[3]", "result": 17.58, "unit": "μm"},
      {"measurement": "Particle size D(0.5)", "setting": "[4]", "result": 16.74, "unit": "μm"}
    ]}
  ]
}
